By pIC50 is commonly meant the negative decadic logarithm of the IC50, by convention in mol/L. As a reminder, the pKi is the Ki on a negative log10 scale, so that one unit is a factor of ten.

The results in this text go back to ChEMBL document CHEMBL1909046, “DrugMatrix in vitro pharmacology data”.

One assay has as its target Carbonic anhydrase 2 (Homo sapiens, UniProt P00918). Nature of the assay: DRUGMATRIX: Carbonic Anhydrase II enzyme inhibition (substrate: 4-Nitrophenyl acetate (4-NPA)). Format: tissue-based, Erythrocyte. Conditions: erythrocyte; Not Active = under 50% inhibition at 10 µM.
The target in assay [1] is Beta-2 adrenergic receptor (Homo sapiens, UniProt P07550). As to the kind of experiment: DRUGMATRIX: Adrenergic beta2 radioligand binding (ligand: [3H] CGP-12177). Type of assay: cell membranes, CHO, Membrane. Conditions: cho; Not Active = under 50% inhibition at 10 µM.
The next assay deals with T1, Caspase-1 (Homo sapiens, UniProt P29466).
T1 sequence (P29466 whole entry): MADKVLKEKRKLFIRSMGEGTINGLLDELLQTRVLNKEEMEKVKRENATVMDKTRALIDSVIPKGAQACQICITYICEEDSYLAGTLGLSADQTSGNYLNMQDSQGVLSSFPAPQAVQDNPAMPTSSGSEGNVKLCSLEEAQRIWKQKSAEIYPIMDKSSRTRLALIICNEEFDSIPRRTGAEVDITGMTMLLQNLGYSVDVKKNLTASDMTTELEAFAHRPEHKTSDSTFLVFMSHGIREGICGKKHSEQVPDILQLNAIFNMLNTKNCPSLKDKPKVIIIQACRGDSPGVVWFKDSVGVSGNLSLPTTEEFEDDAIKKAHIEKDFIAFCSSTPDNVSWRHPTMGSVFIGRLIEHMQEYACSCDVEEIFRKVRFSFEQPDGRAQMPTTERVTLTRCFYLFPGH
Also noted: species or system Escherichia coli.

The target of a further assay is Melanocortin receptor 5 (Homo sapiens, UniProt P33032). Format: cell membranes, HEK293, Membrane. To be noted: hek293. Further: in other assays of this panel Not Active means under 50% inhibition at 10 µM.
A short description of assay [2]: DRUGMATRIX: Atrial Natriuretic Factor (ANF) radioligand binding (ligand: [125I] ANF (rat)). Format: cell membranes, Cavia porcellus, Dunkin-Hartley, Adrenal gland, Membrane. To be noted: Not Active = under 50% inhibition at 10 µM.
A further assay deals with D(3) dopamine receptor (Homo sapiens, UniProt P35462). Nature of the assay: DRUGMATRIX: Dopamine D3 radioligand binding (ligand: [3H] Spiperone). Type of assay: cell membranes, CHO, Membrane. Conditions: for IC50: cho; for pIC50: read-out: IC50; for pKi: read-out: Ki.

pIC50, pKi: −log10 of the molar value.

Beta-2 adrenergic receptor, sequence (P07550 whole entry): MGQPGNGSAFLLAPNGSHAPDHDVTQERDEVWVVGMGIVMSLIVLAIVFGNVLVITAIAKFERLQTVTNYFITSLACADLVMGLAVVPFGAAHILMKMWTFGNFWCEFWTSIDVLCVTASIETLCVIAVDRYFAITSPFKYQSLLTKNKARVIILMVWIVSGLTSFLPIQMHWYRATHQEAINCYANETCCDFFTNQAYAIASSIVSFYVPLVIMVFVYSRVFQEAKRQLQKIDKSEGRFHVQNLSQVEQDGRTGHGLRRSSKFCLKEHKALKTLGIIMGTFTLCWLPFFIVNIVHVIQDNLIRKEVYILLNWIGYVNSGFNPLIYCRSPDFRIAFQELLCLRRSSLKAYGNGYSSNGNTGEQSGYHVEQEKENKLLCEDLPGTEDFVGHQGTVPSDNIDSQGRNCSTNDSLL
D(3) dopamine receptor, sequence (P35462 whole entry): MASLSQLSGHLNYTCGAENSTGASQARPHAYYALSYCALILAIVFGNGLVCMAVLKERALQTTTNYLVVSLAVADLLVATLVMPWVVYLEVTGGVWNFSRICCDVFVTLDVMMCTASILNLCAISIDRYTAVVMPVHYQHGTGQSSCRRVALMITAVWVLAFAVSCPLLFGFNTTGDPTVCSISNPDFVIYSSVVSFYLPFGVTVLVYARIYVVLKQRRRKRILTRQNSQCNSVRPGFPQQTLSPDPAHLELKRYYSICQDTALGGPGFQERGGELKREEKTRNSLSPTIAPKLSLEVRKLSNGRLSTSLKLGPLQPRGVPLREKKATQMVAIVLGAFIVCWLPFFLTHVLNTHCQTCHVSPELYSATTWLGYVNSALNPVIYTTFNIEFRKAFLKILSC
Melanocortin receptor 5, sequence (P33032 whole entry): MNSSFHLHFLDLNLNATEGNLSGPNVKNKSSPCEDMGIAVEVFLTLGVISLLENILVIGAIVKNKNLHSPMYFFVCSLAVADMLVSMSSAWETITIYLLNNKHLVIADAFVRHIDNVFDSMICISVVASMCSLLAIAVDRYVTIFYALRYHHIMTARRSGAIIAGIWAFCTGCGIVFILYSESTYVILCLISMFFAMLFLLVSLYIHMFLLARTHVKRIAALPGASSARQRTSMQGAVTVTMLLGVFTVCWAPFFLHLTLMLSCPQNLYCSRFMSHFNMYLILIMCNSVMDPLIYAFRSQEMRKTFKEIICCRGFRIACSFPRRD

Consider `CCOc1nc2cccc(C(=O)O)c2n1Cc1ccc(-c2ccccc2-c2nnn[nH]2)cc1`, for which the IC50 result (at Carbonic anhydrase 2; in assay [1]; on Caspase-1; against Melanocortin receptor 5; in assay [2]; on D(3) dopamine receptor) was “Not Active” throughout. Further, the Ki entry in assay [2] was “Not Active”.

Take `O=C(O)CCCc1cccs1`: the IC50 entry (on Carbonic anhydrase 2; in assay [1]; against Caspase-1; on Melanocortin receptor 5; in assay [2]; at D(3) dopamine receptor) was “Not Active” each time. The Ki entry in assay [2] was “Not Active”.

With `COc1ccccc1N`, the IC50 entry (on Carbonic anhydrase 2; in assay [1]; against Caspase-1; against Melanocortin receptor 5; in assay [2]; at D(3) dopamine receptor) was “Not Active” each time. Moreover, the Ki result in assay [2] was “Not Active”.

On to `O=C(c1ccccc1F)N1CCC(Cc2ccccc2)CC1`, for which the IC50 entry (against Carbonic anhydrase 2; in assay [1]; against Caspase-1; at Melanocortin receptor 5; in assay [2]; at D(3) dopamine receptor) was “Not Active” throughout. In addition, the Ki result in assay [2] is “Not Active”.

On to `Cc1c(O)cccc1C(=O)N[C@@H](CSc1ccccc1)[C@H](O)CN1C[C@H]2CCCC[C@H]2C[C@H]1C(=O)NC(C)(C)C`, for which the IC50 entry (on Carbonic anhydrase 2; in assay [1]; against Caspase-1; against Melanocortin receptor 5; in assay [2]; at D(3) dopamine receptor) was “Not Active” each time. Also, the Ki result in assay [2] was “Not Active”.

For `CC(O)COC[C@H]1O[C@@H]2O[C@H]3[C@H](O)[C@@H](O)[C@@H](O[C@H]4[C@H](O)[C@@H](O)[C@@H](O[C@H]5[C@H](O)[C@@H](O)[C@@H](O[C@H]6[C@H](O)[C@@H](O)[C@@H](O[C@H]7[C@H](O)[C@@H](O)[C@@H](O[C@H]8[C@H](O)[C@@H](O)[C@@H](O[C@H]1[C@H](O)[C@H]2O)O[C@@H]8COCC(C)O)O[C@@H]7COCC(C)O)O[C@@H]6COCC(C)O)O[C@@H]5COCC(C)O)O[C@@H]4COCC(C)O)O[C@@H]3COCC(C)O` (stereo partly drawn) [2-HYDROXYPROPYL-BETA-CYCLODEXTRIN], the IC50 entry (against Carbonic anhydrase 2; in assay [1]; against Caspase-1; against Melanocortin receptor 5; in assay [2]; on D(3) dopamine receptor) was “Not Active” in each case. Moreover, the Ki result in assay [2] was “Not Active”.

In the case of `NC(=O)c1cccc(N)c1` [3-AMINOBENZAMIDE], the IC50 result (at Carbonic anhydrase 2; in assay [1]; against Caspase-1; on Melanocortin receptor 5; in assay [2]; on D(3) dopamine receptor) was “Not Active” throughout. The Ki result in assay [2] is “Not Active”.

For `C[C@H]1O[C@H](O[C@H]2[C@H](O)[C@@H](O)[C@@H](O[C@H]3[C@H](O)[C@@H](O)C(O)O[C@@H]3CO)O[C@@H]2CO)[C@H](O)[C@@H](O)[C@@H]1N[C@H]1C=C(CO)[C@@H](O)[C@H](O)[C@H]1O` (some centres undefined) [ACARBOSE], the IC50 result (on Carbonic anhydrase 2; in assay [1]; against Caspase-1; on Melanocortin receptor 5; in assay [2]; on D(3) dopamine receptor) was “Not Active” throughout. In addition, in assay [2], the Ki entry was “Not Active”.

Turning to `CC[C@H]1[C@@H]2C[C@H]3[C@@H]4N(C)c5ccccc5[C@]45C[C@@H]([C@@H]2[C@H]5O)N3[C@@H]1O` [AJMALINE], the IC50 entry (on Carbonic anhydrase 2; in assay [1]; against Caspase-1; at Melanocortin receptor 5; in assay [2]; on D(3) dopamine receptor) was “Not Active” each time. In addition, in assay [2], the Ki result is recorded as “Not Active”.

As to `NC12CC3CC(CC(C3)C1)C2` [AMANTADINE], the IC50 result (against Carbonic anhydrase 2; in assay [1]; against Caspase-1; against Melanocortin receptor 5; in assay [2]; at D(3) dopamine receptor) was “Not Active” throughout. Further, the Ki entry in assay [2] is “Not Active”.

As for `NCCCNCCSP(=O)(O)O` [AMIFOSTINE], the IC50 entry (against Carbonic anhydrase 2; in assay [1]; on Caspase-1; on Melanocortin receptor 5; in assay [2]) was “Not Active” throughout. Moreover, the Ki result in assay [2] is given as “Not Active”. The pIC50 at D(3) dopamine receptor was 5.71. For the same molecule, the negative logarithm of the Ki (pKi) on D(3) dopamine receptor is 6.18.

Consider `CN(C)CCC=C1c2ccccc2CCc2ccccc21` [AMITRIPTYLINE], for which the IC50 entry (at Carbonic anhydrase 2; in assay [1]; at Caspase-1; against Melanocortin receptor 5; in assay [2]) was “Not Active” each time. Also, the Ki entry in assay [2] is recorded as “Not Active”. Also, the pIC50 at D(3) dopamine receptor was 6.74. For the same molecule, the pKi at D(3) dopamine receptor is 7.21.

Regarding `CC(=O)Oc1ccccc1C(=O)O` [ASPIRIN], the IC50 result (at Carbonic anhydrase 2; in assay [1]; against Caspase-1; on Melanocortin receptor 5; in assay [2]; at D(3) dopamine receptor) was “Not Active” each time. Also, the Ki entry in assay [2] was “Not Active”.

For `CC(C)c1c(C(=O)Nc2ccccc2)c(-c2ccccc2)c(-c2ccc(F)cc2)n1CC[C@@H](O)C[C@@H](O)CC(=O)O` [ATORVASTATIN], the IC50 result (against Carbonic anhydrase 2; in assay [1]; against Caspase-1; against Melanocortin receptor 5; in assay [2]; at D(3) dopamine receptor) was “Not Active” each time. Besides, the Ki result in assay [2] is “Not Active”.

In the case of `CC(=O)OC[C@H]1O[C@@H](n2ncc(=O)[nH]c2=O)[C@H](OC(C)=O)[C@@H]1OC(C)=O` [AZARIBINE], the IC50 result (against Carbonic anhydrase 2; in assay [1]; against Caspase-1; against Melanocortin receptor 5; in assay [2]; on D(3) dopamine receptor) was “Not Active” throughout. For the same molecule, the Ki result in assay [2] is “Not Active”.

With `C[C@H]1[C@H](NC(=O)/C(=N\OC(C)(C)C(=O)O)c2csc(N)n2)C(=O)N1S(=O)(=O)O` [AZTREONAM], the IC50 entry (against Carbonic anhydrase 2; in assay [1]; at Caspase-1; against Melanocortin receptor 5; in assay [2]; on D(3) dopamine receptor) was “Not Active” in each case. Further, the Ki entry in assay [2] was “Not Active”.

For the molecule `O=C(O)CCNC(=O)c1ccc(/N=N/c2ccc(O)c(C(=O)O)c2)cc1` [BALSALAZIDE], the IC50 entry (against Carbonic anhydrase 2; in assay [1]; against Caspase-1; on Melanocortin receptor 5; in assay [2]; on D(3) dopamine receptor) was “Not Active” in each case. The Ki entry in assay [2] is “Not Active”.

In the case of `COc1cc(OC)c(C(=O)CCCN2CCCC2)c(OC)c1` [BUFLOMEDIL], the IC50 entry (against Carbonic anhydrase 2; in assay [1]; at Caspase-1; against Melanocortin receptor 5; in assay [2]; at D(3) dopamine receptor) was “Not Active” in each case. In addition, the Ki result in assay [2] is reported as “Not Active”.

On to `N=C(N)c1ccc(OCCCCCOc2ccc(C(=N)N)cc2)cc1` [PENTAMIDINE], for which the IC50 result (at Carbonic anhydrase 2; in assay [1]; against Caspase-1; against Melanocortin receptor 5; in assay [2]) was “Not Active” each time. Moreover, the Ki entry in assay [2] is “Not Active”.
